# Laboratory results published in PMC5736175, “Nicotinic alpha 7 receptor agonists EVP-6124 and BMS-933043, attenuate scopolamine-induced deficits in visuo-spatial paired associates learning” (PLoS ONE, 2017).
# Where “and” joins values, the source holds several entries; their conditions need not be identical. Equal values may be shown once. Where a name gives a salt, the structure may show the parent alone. Marks after values point to notes of the source that are not given here.
# Experiments:
# [1] = test system: scopolamine-treated cynomolgus monkeys; assay: Scopolamine-induced impairment of vsPAL task performance, treatment + scopolamine; format: in vivo, cynomolgus monkeys (Macaca Fasicularis); settings: for scopolamine impairment: difference between vehicle+vehicle and vehicle+scopolamine, % correct eventual: 4-stimuli condition; for Percent Correct on Initial Attempt (SEM), 2 stimuli / Percent Correct on Initial Attempt (SEM), 3 stimuli / Percent Correct on Initial Attempt (SEM), 4 stimuli: Vehicle + Scopolamine; for mean (cohen's d calculations): eventual correct, 4-stimuli
# Method: Doses cited refer to the free base form of the compounds. […] All drugs were administered intramuscularly (i.m.) in a dosing volume of 0.1–0.2 ml/kg.
# On days when compound testing occurred, approximately half the cohort received one dose and the remainder another dose of the same compound and therefore dose order was staggered between animals. With the exception of EVP-6124, all other compounds were tested in a single dose response study.
# Cohen’s d values of >0.2, >0.5 and >0.8 are described using the conventions of small, medium, and large effects, respectively.
# cynomolgus monkeys = assay: Scopolamine dose-response on CANTAB vsPAL task performance
# Source text: Thirteen experimentally naïve male cynomolgus monkeys (Macaca Fasicularis; 3–5 years of age; 5.0–7.5 kg at the beginning of the study) served as subjects. Subjects were housed in pairs, separated during testing (Monday through Friday) and re-paired after feeding in the afternoon. Subjects were fed standard monkey chow (Harlan Teklad Global 20% protein Primate Diet 2050) in sufficient quantities to ensure normal growth while maintaining sufficient motivation to perform the cognitive testing [30]. Water was continuously available except during behavioral testing. Fresh fruit, toys and foraging devices were routinely provided in the monkey colony rooms.
# For behavioral testing subjects were seated comfortably in restraint chairs (Primate Products, Immokalee, FL), and placed in individual, sound attenuated chambers (Med-Associates, St. Albans, VT), equipped with lights, a white noise generator and a monitoring camera. A touch-sensitive computer monitor was within easy reach and session events were controlled by a Monkey CANTAB test station; (Lafayette Instruments, Lafayette, IN) and Whisker Control [45]. Following correct responses, a dispenser delivered 190 mg banana-flavored pellets (Bioserv, Frenchtown PA).
# Ten subjects were trained to perform the CANTAB vsPAL test as previously described [38, 46]. Briefly, the test required the animal to associate a stimulus (abstract shape) with a given spatial location on the computer screen (one of the four corners; S1 Fig). Ten trials each of increasing difficulty (2-, 3- or 4- stimuli) were presented. Trials began with the ‘sample phase’ where stimuli are presented and touched sequentially in their respective locations with a 1 sec delay between stimuli. Following 5 sec where the screen was blank, the choice phase began. The same stimulus was presented in all four corners of the screen for all difficulty levels. […] After a 1 sec screen blank another stimulus was presented in all four corners. If the animal touched the correct location for all shapes in the choice phase on the first attempt the trial was recorded as ‘correct on the initial attempt’. […] The same trial could be repeated up to 5 additional times.
# If the animal learned the sequence by the 6th attempt, the trial was recorded as ‘eventual correct’, or ‘incorrect’ if not. […] Additional measures were the percent completion (the proportion of trials on which both sample and choice responses were made), and response latency (time from sample onset to the screen touch in the choice phase, averaged across difficulty conditions).
# Drug testing was conducted on Mondays and Thursdays. An additional baseline session was conducted on Tuesdays. […] Additional animals were included in later studies as their performance improved.
# There was a washout period of at least 2 weeks between studies.
# Accuracy measures (i.e. percent initially correct and percent eventually correct) were analyzed with repeated measures analysis of variance (RM-ANOVA) with the two within-subject factors of difficulty (mean of number of stimuli per trial and overall mean) and treatment. Latencies to respond in all choice phases and percent task completed for the entire session were analyzed by one way RM ANOVA. […] Statistical tests were performed using OriginPro v 9.1 (OriginLab Co., Northampton, MA). Missing data were filled with the mean of the respective cell to enable RM ANOVA computation.
# [2] = Average Individualized Scopolamine (0.0045-0.0067 mg/kg) + Vehicle, individual animals
# [3] = Average Individualized Scopolamine + Vehicle, MEAN of 8 animals
# [4] = Average Individualized Scopolamine + Vehicle, group MEAN
# [5] = Average Individualized Scopolamine + Vehicle, group MEAN of 6 animals
# [6] = EVP DRC 2, Average Individualized Scopolamine + Vehicle, group MEAN of 7 animals
# [7] = Scopolamine 0.003 mg/kg, i.m., MEAN
# [8] = Scopolamine 0.003 mg/kg, i.m., individual animals
# [9] = Scopolamine 0.0056 mg/kg, i.m., MEAN
# [10] = Scopolamine 0.0056 mg/kg, i.m., individual animals
# [11] = Scopolamine 0.01 mg/kg i.m., MEAN
# [12] = Scopolamine 0.01 mg/kg i.m., individual animals
compound,measurement,setting,value
"CN1[C@@H]2C[C@@H](OC(=O)[C@H](CO)c3ccccc3)C[C@H]1[C@@H]1O[C@@H]12 [Scopolamine, Scopolamine HCl]","scopolamine impairment: difference between vehicle+vehicle and vehicle+scopolamine, % correct eventual",[1]; donepezil study,49.4%
same,"scopolamine impairment: difference between vehicle+vehicle and vehicle+scopolamine, % correct eventual",[1]; first EVP-6124 study,20.5%
same,% Completion,[1]; [2],57.3% and 62.4% and 94.5% and 85.3% and 87.0% and 81.6%
same,Average Response Latency,[1]; [2],1943.4 ms and 2791.5 ms and 2008.6 ms and 2389.3 ms and 2808.7 ms and 2502.8 ms
same,"Eventual Correct, 2 Stimuli",[1]; [2],90.0% and 100.0% and 95.0% and 97.5%
same,"Eventual Correct, 3 Stimuli",[1]; [2],65.7% and 66.7% and 90.0%
same,"Eventual Correct, 4 Stimuli",[1]; [2],36.7% and 32.2% and 47.1% and 63.3% and 32.5% and 69.2%
same,"Eventual Correct, Overall Mean % Correct",[1]; [2],66.2% and 66.3% and 73.2% and 84.4% and 71.7% and 85.6%
same,"Initial Correct, 3 Stimuli",[1]; [2],40.0% and 47.5% and 30.0% and 42.5% and 60.0%
same,"Initial Correct, 4 Stimuli",[1]; [2],16.7% and 22.5% and 20.0%
same,"Initial Correct, Overall Mean % Correct",[1]; [2],53.1% and 56.9% and 66.9%
same,"Initial correct, 2 Stimuli",[1]; [2],60.0% and 95.0% and 70.0% and 87.5%
same,Average Response Latency (Avg Rsp Lat),[1]; [3],2342.3 ms
same,"Eventual Correct, 2 Stimuli",[1]; [3],98.1%
same,"Eventual Correct, 4 Stimuli",[1]; [3],50.3%
same,"Eventual Correct, Overall Mean % Correct",[1]; [3],76.1%
same,"Initial Correct, 3 Stimuli",[1]; [3],46.2%
same,"Initial Correct, 4 Stimuli",[1]; [3],19.5%
same,"Initial correct, 2 Stimuli",[1]; [3],84.3%
same,% Completion,[1]; [4],83.8%
same,Average Response Latency (Avg rsp lat),[1]; [4],1934.6 ms
same,"Eventual Correct, 2 Stimuli",[1]; [4],99.7%
same,"Eventual Correct, 3 Stimuli",[1]; [4],98.0%
same,"Eventual Correct, Overall Mean % Correct",[1]; [4],92.3%
same,"Initial Correct, 3 Stimuli",[1]; [4],70.0%
same,"Initial Correct, Overall Mean % Correct",[1]; [4],65.4%
same,"Initial correct, 2 Stimuli",[1]; [4],87.2%
same,% Completion,[1]; [5],78.0%
same,Average Response Latency,[1]; [5],2407.4 ms
same,"Eventual Correct, 2 Stimuli",[1]; [5],97.1%
same,"Eventual Correct, 4 Stimuli",[1]; [5],46.8%
same,"Eventual Correct, Overall Mean % Correct",[1]; [5],74.6%
same,"Initial Correct, 3 Stimuli",[1]; [5],49.2%
same,Average Response Latency (Avg rsp lat),[1]; [6],2021.60 ms
same,"Eventual Correct, 2 Stimuli",[1]; [6],99.5%
same,"Eventual Correct, 3 Stimuli",[1]; [6],95.7%
same,"Eventual Correct, 4 Stimuli",[1]; [6],65.7%
same,"Eventual Correct, Overall Mean % Correct",[1]; [6],87.7%
same,"Initial Correct, 3 Stimuli",[1]; [6],66.2%
same,"Initial Correct, 4 Stimuli",[1]; [6],34.6%
same,"Initial Correct, Overall Mean % Correct",[1]; [6],64.9%
same,"Initial correct, 2 Stimuli",[1]; [6],91.9%
same,"Percent Correct on Initial Attempt (SEM), 2 stimuli",[1]; BMS-933043 study,89.6% (1.8%)
same,"Percent Correct on Initial Attempt (SEM), 3 stimuli",[1]; BMS-933043 study,67.0% (5.0%)
same,"Percent Correct on Initial Attempt (SEM), 4 stimuli",[1]; BMS-933043 study,37.3% (7.4%) ††
same,"Percent Correct on Initial Attempt (SEM), 2 stimuli",[1]; EVP-6124 study 1,87.3% (4.0%)
same,"Percent Correct on Initial Attempt (SEM), 3 stimuli",[1]; EVP-6124 study 1,70.0% (3.4%) ††
same,"Percent Correct on Initial Attempt (SEM), 4 stimuli",[1]; EVP-6124 study 1,38.8% (4.0%) ††
same,"Percent Correct on Initial Attempt (SEM), 2 stimuli",[1]; EVP-6124 study 2,91.9% (3.6%)
same,"Percent Correct on Initial Attempt (SEM), 3 stimuli",[1]; EVP-6124 study 2,66.2% (7.6%) †
same,"Percent Correct on Initial Attempt (SEM), 4 stimuli",[1]; EVP-6124 study 2,34.6% (4.2%) ††
same,"Percent Correct on Initial Attempt (SEM), 2 stimuli",[1]; RG3487 study,84.3% (2.8%)
same,"Percent Correct on Initial Attempt (SEM), 3 stimuli",[1]; RG3487 study,46.2% (8.0%) ††
same,"Percent Correct on Initial Attempt (SEM), 4 stimuli",[1]; RG3487 study,19.5% (4.9%) ††
same,"Percent Correct on Initial Attempt (SEM), 2 stimuli",[1]; donepezil study,79.6% (5.3%)
same,"Percent Correct on Initial Attempt (SEM), 3 stimuli",[1]; donepezil study,49.2% (6.5%) †
same,"Percent Correct on Initial Attempt (SEM), 4 stimuli",[1]; donepezil study,25.8% (4.5%) ††
same,mean (cohen's d calculations),"[1]; scop+vehicle, donepezil study",46.8
same,mean (cohen's d calculations),"[1]; veh+scop, BMS-933043 study",65.7
same,mean (cohen's d calculations),"[1]; vehicle+scop, EVP-6124 study 2",65.7
same,"Eventual Correct, 2 Stimuli",cynomolgus monkeys; [7],100.0%
same,"Eventual Correct, 3 Stimuli",cynomolgus monkeys; [7],100.0%
same,"Eventual Correct, 4 Stimuli",cynomolgus monkeys; [7],90.0%
same,"Eventual Correct, Overall Mean % Correct",cynomolgus monkeys; [7],96.7%
same,"Initial Correct, 3 Stimuli",cynomolgus monkeys; [7],68.7%
same,"Initial Correct, 4 Stimuli",cynomolgus monkeys; [7],57.5%
same,"Initial Correct, Overall Mean % Correct",cynomolgus monkeys; [7],74.2%
same,"Initial correct, 2 Stimuli",cynomolgus monkeys; [7],96.3%
same,% Completion,cynomolgus monkeys; [8],63.0% and 97.0% and 100.0% and 84.0%
same,"Average Response Latency, ms (Avg Rsp Lat)",cynomolgus monkeys; [8],6153.3 ms and 1831.0 ms and 1549.1 ms and 1787.2 ms and 2129.2 ms and 2342.9 ms and 2289.1 ms and 1548.2 ms
same,"Eventual Correct, 2 Stimuli",cynomolgus monkeys; [8],100.0%
same,"Eventual Correct, 3 Stimuli",cynomolgus monkeys; [8],100.0%
same,"Eventual Correct, 4 Stimuli",cynomolgus monkeys; [8],90.0% and 100.0%
same,"Eventual Correct, Overall Mean % Correct",cynomolgus monkeys; [8],93.3% and 96.7% and 100.0%
same,"Initial Correct, 3 Stimuli",cynomolgus monkeys; [8],70.0% and 100.0% and 40.0% and 60.0%
same,"Initial Correct, 4 Stimuli",cynomolgus monkeys; [8],30.0% and 70.0% and 100.0% and 50.0% and 60.0%
same,"Initial Correct, Overall Mean % Correct",cynomolgus monkeys; [8],63.3% and 100.0% and 73.3% and 66.7% and 70.0% and 76.7%
same,"Initial correct, 2 Stimuli",cynomolgus monkeys; [8],90.0% and 100.0%
same,"Eventual Correct, 2 Stimuli",cynomolgus monkeys; [9],95.0%
same,"Eventual Correct, 3 Stimuli",cynomolgus monkeys; [9],84.3%
same,"Eventual Correct, 4 Stimuli",cynomolgus monkeys; [9],51.1%
same,"Eventual Correct, Overall Mean % Correct",cynomolgus monkeys; [9],76.8%
same,"Initial Correct, 3 Stimuli",cynomolgus monkeys; [9],54.3%
same,"Initial Correct, 4 Stimuli",cynomolgus monkeys; [9],32.8%
same,% Completion,cynomolgus monkeys; [10],21.0% and 62.0% and 51.0% and 97.0% and 88.0% and 91.0% and 34.5%
same,"Average Response Latency, ms (Avg Rsp Lat)",cynomolgus monkeys; [10],1881.3 ms and 2302.7 ms and 2706.5 ms and 2004.6 ms and 2231.8 ms and 2896.7 ms and 2108.4 ms and 1817.8 ms
same,"Eventual Correct, 2 Stimuli",cynomolgus monkeys; [10],60.0% and 100.0%
same,"Eventual Correct, 3 Stimuli",cynomolgus monkeys; [10],100.0% and 50.0% and 90.0% and 70.0%
same,"Eventual Correct, 4 Stimuli",cynomolgus monkeys; [10],50.0% and 16.7% and 70.0% and 0.0% and 90.0%
same,"Eventual Correct, Overall Mean % Correct",cynomolgus monkeys; [10],83.3% and 55.6% and 86.7% and 90.0% and 56.7% and 96.7%
same,"Initial Correct, 3 Stimuli",cynomolgus monkeys; [10],70.0% and 40.0% and 20.0% and 60.0% and 50.0%
same,"Initial Correct, 4 Stimuli",cynomolgus monkeys; [10],30.0% and 16.7% and 50.0% and 0.0% and 60.0%
same,"Initial Correct, Overall Mean % Correct",cynomolgus monkeys; [10],26.0% and 63.3% and 76.7% and 53.3%
same,"Initial correct, 2 Stimuli",cynomolgus monkeys; [10],50.0% and 90.0% and 100.0%
same,"Eventual Correct, 2 Stimuli",cynomolgus monkeys; [11],96.3%
same,"Eventual Correct, 4 Stimuli",cynomolgus monkeys; [11],36.8%
same,"Eventual Correct, Overall Mean % Correct",cynomolgus monkeys; [11],68.5%
same,"Initial Correct, 3 Stimuli",cynomolgus monkeys; [11],47.8%
same,"Initial Correct, 4 Stimuli",cynomolgus monkeys; [11],20.1%
same,% Completion,cynomolgus monkeys; [12],63.6% and 78.0% and 52.6% and 100.0% and 43.5% and 50.8% and 31.0%
same,"Average Response Latency, ms (Avg Rsp Lat)",cynomolgus monkeys; [12],3290.4 ms and 1872.3 ms and 1904.8 ms and 2135.7 ms and 2272.7 ms and 2295.1 ms and 2067.4 ms and 1369.7 ms
same,"Eventual Correct, 2 Stimuli",cynomolgus monkeys; [12],100.0% and 90.0% and 80.0%
same,"Eventual Correct, 3 Stimuli",cynomolgus monkeys; [12],100.0% and 60.0% and 90.0% and 14.3%
same,"Eventual Correct, 4 Stimuli",cynomolgus monkeys; [12],44.4% and 25.0% and 0.0%
same,"Eventual Correct, Overall Mean % Correct",cynomolgus monkeys; [12],81.5% and 75.0% and 53.3% and 89.3%
same,"Initial Correct, 3 Stimuli",cynomolgus monkeys; [12],50.0% and 70.0% and 90.0% and 30.0% and 0.0% and 12.5%
same,"Initial Correct, 4 Stimuli",cynomolgus monkeys; [12],33.3% and 25.0% and 0.0% and 22.2%
same,"Initial Correct, Overall Mean % Correct",cynomolgus monkeys; [12],68.3% and 36.7% and 60.7% and 26.7% and 20.9% and 53.4%
same,"Initial correct, 2 Stimuli",cynomolgus monkeys; [12],90.0% and 60.0% and 30.0%
